Test [1] deals with B16F10. The experiment in a line: CellTiter-Glo cell viability assay (example 57). It counts as cell-based, human. Conditions: Mus musculus, B16-F10; B16F10 (Melanoma); Cell Titer-Glo; 72 h.
Test [2] has as its system A375. The experiment in a line: Cell proliferation assay at 10 μM. Conditions: Homo sapiens, A-375, 72 h, read-out: Cell viability observed at 10 μM. Format: cell-based, human. The procedure:
(§1) The human melanoma cell line A375 and colorectal carcinoma cell line HCT-116 were cultured in Dulbecco's modified Eagle's medium supplemented with 10% fetal bovine serum and 1% Penicillin-Streptomycin. The human leukemia cell line MOLM-14 was cultured in Minimum Essential Medium Alpha Medium supplemented with 10% Fetal Bovine Serum and 1% Penicillin-Streptomycin. All the cell lines were maintained at 37° C. with 5% CO2.
(§2) Briefly, adherent cells, A375 and HCT-116 cells were respectively plated at 800 or 5,000 cells per well onto 96-well plates in 90 μL of media per well and were allowed to grow overnight before the assay.
(§3) Compounds were added at different concentrations to each well, and cell cultures were incubated for 72 h. Vehicle (DMSO or H2O) was used as a control, and all compounds were tested in a constant percentage of vehicle. Cell outgrowth was measured using for adherent cells CellTiter […] Aqueous One Solution Cell Proliferation Assay (Promega) and for cell suspension, Sulforhodamine B colorimetric assay as described in Vichai et al. (Vichai, V. and Kirtikara, K. Nat. Protoc. 2006 (1) 1112-1116). Absorbance was measured using an Infinite F200 Pro or Sunrise TECAN plate reader.
(§4) In each experiment, each point represents the average of two replicates in cell culture.
(§5) Results are presented in Table 1 below for concentrations of 10 μM of tested compounds.

The test system of test [3] is HCT-116. The experiment in a line: Cell proliferation assay at 10 μM. As to conditions: Homo sapiens, HCT-116, 72 h, read-out: Cell viability observed at 10 μM. It counts as cell-based. As to the method:
as §1, §2, §3, §4, §5

Test [4] relates to MOLM-14. The experiment in a line: Cell proliferation assay at 10 μM. Format: cell-based, human. Conditions: Homo sapiens, MOLM-14, 72 h, read-out: Cell viability observed at 10 μM. The procedure: as §1
For MOLM-14 cell line, which grows in suspension, 30,000 cells were plated onto 96-well plates immediately before the assay.
as §3, §4, §5

Test [5] relates to A-375. The experiment in a line: EC50 determination in cancer cell lines. Format: cell-based, human. As to conditions: Homo sapiens, A-375, 72 h. The procedure: as §3
(§6) The human melanoma cell line A375, colorectal carcinoma cell line HCT-116, hepatocellular carcinoma cell line HepG2 were cultured in Dulbecco's modified Eagle's medium supplemented with 10% fetal bovine serum and 1% Penicillin-Streptomycin. The human melanoma cell lines SK-MEL-28 and SK-MEL-5 were cultured in Minimum Essential Medium. The colorectal carcinoma cell lines HT-29 and Colo205 were respectively cultured in Mc Coy's and RPMI media. The human leukemia cell lines MV4-11 and KG-1 were cultured in Iscove's Modified Dulbecco's Media. The human leukemia cell line MOLM-14 was cultured in Minimum Essential Medium Alpha Medium supplemented with 10% Fetal Bovine Serum and 1% Penicillin-Streptomycin All culture media were supplemented with 10% fetal bovine serum and 1% Penicillin-Streptomycin except for MV4-11 cell line 20% fetal bovine serum and 1% Penicillin-Streptomycin. All the cell lines were maintained at 37° C. with 5% C02.
(§7) Briefly, adherent cells, A375, HCT-116, HepG2, SK-MEL-28, SK-MEL-5, HT-29 and Colo205 cells were respectively plated at 800, 5,000, 7,000, 2,500, 3,000-5,000, 5,000 or 5,000 cells per well onto 96-well plates in 90 μL of media per well and were allowed to grow overnight before the assay. For MV4-11 and KG-1 cells that grow in suspension, 40,000-60,000 cells were plated onto 96-well plates immediately before the assay. MOLM-14 cell line, that grow in suspension, 30,000 cells were plated onto 96-well plates immediately before the assay.
(§8) The cell growth measure was the same as described in example 51.
(§9) The experimental data are analyzed using a computer program, Graphpad Prism (GraphPad Software, Inc. La Jolla, Calif.) and EC50 values were determined as the dose of compound required to reduce absorbance values to 50% of the signal obtained for vehicle treated cell cultures and were a mean of at least two independent experiments except for EC50 values with (*) where […].

In test [6] the test system is HepG2. The experiment in a line: EC50 determination in cancer cell lines. Format: cell-based, human. Conditions: Homo sapiens, HepG2, 72 h. As to the method: as §3, §6, §7, §8, §9
For test [7], the system named is HCT-116. The experiment in a line: EC50 determination in cancer cell lines. As to conditions: Homo sapiens, HCT-116, 72 h. Format: cell-based, human. As to the method: as §3, §6
Briefly, adherent cells, A375, HCT-116, HepG2, SK-MEL-28, SK-MEL-5, HT-29 and Colo205 cells were respectively plated at 800, 5,000, 7,000, 2,500, 3,000-5,000, 5,000 or 5,000 cells per well onto 96-well plates in 90 μL of media per well and were allowed to grow overnight before the assay. For MV4-11 and KG-1 cells that grow in suspension, 40,000-60,000 cells were plated onto 96-well plates immediately before the assay. MOLM-14 cell line, that grow in suspension, 30,000 cells were plated onto 96-well plates immediately before the assay. […]
as §9

The subject of test [8] is Colo205. The experiment in a line: EC50 determination in cancer cell lines. Format: cell-based. Conditions: Homo sapiens, COLO 205, 72 h, * n>2. The procedure: as §3, §6, §7, §8, §9
The subject of test [9] is HT-29. The experiment in a line: EC50 determination in cancer cell lines. It counts as cell-based. Conditions: Homo sapiens, 72 h, * n>2. As to the method: as §3, §6, §7, §8, §9
In test [10] the test system is KG-1. The experiment in a line: EC50 determination in cancer cell lines. Format: cell-based. As to conditions: Homo sapiens, 72 h. As to the method: as §3, §6, §7, §8, §9
Test [11] relates to MOLM-14. The experiment in a line: EC50 determination in cancer cell lines. It counts as cell-based. Conditions: Homo sapiens, 72 h. As to the method: as §3, §6, §7, §8, §9
Test [12] concerns MV4-11. The experiment in a line: EC50 determination in cancer cell lines. It counts as cell-based. As to conditions: Homo sapiens, 72 h. The procedure: as §3, §6, §7, §8, §9
Test [13] has as its system SK-MEL-28. The experiment in a line: EC50 determination in cancer cell lines. It counts as cell-based. Conditions: Homo sapiens, 72 h. The procedure: as §3, §6, §7, §8, §9
The subject of test [14] is SK-MEL-5. The experiment in a line: EC50 determination in cancer cell lines. Conditions: Homo sapiens, 72 h. It counts as cell-based. As to the method:
as §3, §6, §7, §8, §9

The subject of test [15] is patient derived acute myeloid leukemia (AML) cell lines. The experiment in a line: Cell growth inhibition assay, patient derived AML cells. As to conditions: 48 h. Format: cell-based, human. As to the method: The patient derived acute myeloid leukemia (AML) cells were obtained after written informed consent under the Institut Paoli Calmette (IPC) institutional review board approval and under the strict compliance of the Helsinki declaration on medical research involving human subjects. […] Each compound was added at different concentrations (combinations of six concentrations) to each well, and cell cultures were incubated for 48 h. Vehicle (H2O) was used as a control, and all compounds were tested in a constant percentage of vehicle. Cell outgrowth was measured using the CellTiter-Glo luminescent cell viability assay as described by the manufacturer (Promega, Ref G7571 Madison, Wis., USA) using a Centro (Berthold, France) plate reader. In each experiment, each point represents the average of triplicates in cell culture. The experimental data are analyzed using a computer program, Graphpad Prism (GraphPad Software, Inc.

In test [16] the test system is PBMC Healthy voluntary donor. The experiment in a line: Cell growth inhibition assay, PBMC of healthy donors. It counts as cell-based, human. As to the method: Each compound was added at different concentrations (combinations of six concentrations) to each well, and cell cultures were incubated for 48 h. Vehicle (H2O) was used as a control, and all compounds were tested in a constant percentage of vehicle. Cell outgrowth was measured using the CellTiter-Glo luminescent cell viability assay as described by the manufacturer (Promega, Ref G7571 Madison, Wis., USA) using a Centro (Berthold, France) plate reader. In each experiment, each point represents the average of triplicates in cell culture. The experimental data are analyzed using a computer program, Graphpad Prism (GraphPad Software, Inc.

Counter-ions that a name gives are not always drawn.

With `COc1cccc2c1C(=O)c1c(O)c3c(c(O)c1C2=O)C[C@@](O)(C(=O)CO)C[C@@H]3O[C@H]1C[C@H](N)[C@H](O)[C@H](C)O1` [Doxorubicine, doxorubicin], in [1], the EC50 came to 0.2 µM.
`Clc1ccc2c(CNC3CCN(Cc4ccccc4)CC3)cc(-c3ccccc3)nc2c1` [XXXIII-2, 7-chloro-2-phenyl-4-[(N-benzyl-piperidin-4-yl)aminomethyl]quinoline hydrochloride salt]: the results for the viability at 10 µM in [2], in test [3] and in [4] were 40 to 60%, 20 to 40% and 40 to 60%, respectively. In addition, the concentration for a half-maximal effect (EC50) in test [5] came out at 9 µM; in test [6] it was 16 µM; in test [7], 13 µM; in test [8], 9 µM; in test [9], 14 µM; in test [10], 8 µM. In addition, the EC50 was determined as 9 µM in [11], 5 µM in test [12], 6 µM in test [13] and 6 µM in test [14].
Take `CC(C)(C)NC1CCN(c2cc(-c3ccc(Cl)c(Cl)c3)nc3ccccc23)CC1` [XIV-8, 2-(3,4-dichloro-phenyl)-4-(4-N-tert-butylamino-piperidin-1-yl)quinoline dihydrochloride]: the viability at 10 µM in [2], in [3] and in test [4] was less than 20% throughout. Further, the EC50 in test [5] was found to be 6 µM; in test [7], 5 µM; in test [10] it was 4 µM; in test [11], 5 µM; in test [12], 4 µM; in [13], 4 µM. For the same molecule, the EC50 in test [14] is 6 µM; in test [15] (Homo sapiens, Patient 3, subtype Tri8), 8 µM; in test [15] (Homo sapiens, Patient 8, subtype FLT3−), 25 µM; in test [15] (Homo sapiens, Patient 9, subtype FLT3+), 40 µM; in test [15] (Homo sapiens, Patient 10, subtype Inv 3), 20 µM; in test [15] (Homo sapiens, Patient 12, subtype 5 & 7) it was more than 40 µM. Besides, the EC50 in test [15] (Homo sapiens, Patient 13, subtype MLL) is more than 40 µM; in test [15] (Homo sapiens, Patient 16, subtype Inv 3), 17 µM; in [16] (Homo sapiens, PBMC, PBMC Healthy voluntary donor 1), 31 µM; in test [16] (Homo sapiens, PBMC, PBMC Healthy voluntary donor 2), 14 µM.
Consider `Nc1ccn([C@@H]2O[C@H](CO)[C@@H](O)[C@@H]2O)c(=O)n1` [AraC, cytosine arabinoside, reference compound], for which the half-maximal effective concentration (EC50) is 44 µM in [15] (Patient 3, subtype Tri8); 51 µM in test [15] (Patient 8, subtype FLT3−); 21 µM in test [15] (Patient 9, subtype FLT3+); 36 µM in test [15] (Patient 10, subtype Inv 3); more than 40 µM in test [15] (Patient 12, subtype 5 & 7); 3 µM in [15] (Patient 13, subtype MLL). In addition, the 50% effective concentration (EC50) in test [15] (Patient 16, subtype Inv 3) is 11 µM; in [16] (PBMC Healthy voluntary donor 1), 13 µM.
With `Clc1ccc2c(NC3CCN(Cc4ccccc4)CC3)cc(-c3ccccc3)nc2c1` [XXVIII-2, 7-chloro-2-phenyl-4-[(N-benzylpiperidin-4-yl)-amino]quinoline hydrochloride salt], the viability at 10 µM in test [2], in test [3] and in test [4] was less than 20% each time. Further, the EC50 was found to be 9 µM in test [5]; 26 µM in [6]; 12 µM in [7]; 9 µM in [8]; 13 µM in [9]; 10 µM in test [10]. Also, the EC50 in test [11] was determined as 10 µM; in test [12], 5 µM; in test [13], 7 µM; in [14] it was 9 µM.

The record behind these values is patent US10179770B2, “Quinolines derivatives as novel anticancer agents” (GENOSCIENCE PHARMA, priority 2013, dated 2019).
